In patent US8212022B2, “Effect of carbohydrate concentration on sucralose extraction efficiency” (Tate & Lyle Technology Limited, priority 2008, dated 2012):

Experiment: Partition coefficient K of sucralose between ethyl acetate and water (equal volumes)
Type: physicochemical
Conditions: for partition coefficient, K: equal volumes of ethyl acetate and water
From the text: Unless the context indicates otherwise, in the specification and claims, the terms organic solvent, first organic solvent, second organic solvent, tetrachloro saccharide, trichloro saccharide, dichloro saccharide, salt, sucralose-6-ester, carbohydrate, and similar terms also include mixtures of such materials. The term saccharide includes monosaccharide, disaccharides, and polysaccharides. Solvent means a liquid that dissolves another material. An aqueous solvent is one in which water is the primary (greater than 50 vol % of the solvents present) or only solvent. Partition coefficient, K, of a carbohydrate between an organic solvent and water is the concentration of the carbohydrate in the organic phase divided by the concentration of the carbohydrate in the aqueous phase when equal volumes of organic solvent and water are used. […] Crystallization includes processes in which a solution is rendered saturated or supersaturated with respect to a dissolved component, and the formation of crystals of this component is achieved. The initiation of crystal formation can be spontaneous, or it can require the addition of seed crystals. Crystallization also describes the situation in which a solid or liquid material is dissolved in a solvent to yield a solution which is then rendered saturated or supersaturated so as to obtain crystals. Also, included in the term crystallization are the ancillary processes of washing the crystals with one or more solvents, drying the crystals, and harvesting the final product so obtained. Unless otherwise specified, all percentages are percentages by weight, all temperatures are in degrees Centigrade (degrees Celsius), and all solvent ratios are volume to volume.
Aqueous solutions of sucralose were prepared at various carbohydrate concentrations. An equal volume of ethyl acetate was then added to each solution and the two phases mixed thoroughly. After the two phases separated, the carbohydrate concentration in each phase was determined. The K value was calculated by dividing the concentration of sucralose in the ethyl acetate phase by the concentration of sucralose in the aqueous phase.

| Compound | partition coefficient, K (initial concentration of sucralose in the aqueous phase about 5 wt %) | partition coefficient, K (initial concentration of sucralose in the aqueous phase about 15 wt %) | partition coefficient, K (initial concentration of sucralose in the aqueous phase about 16 wt %) | partition coefficient compared with sucralose (organic solvent such as ethyl acetate and water, equal volumes, same conditions as sucralose) |
| --- | --- | --- | --- | --- |
| OC[C@H]1O[C@H](O[C@]2(CCl)O[C@H](CCl)[C@@H](O)[C@@H]2O)[C@H](O)[C@@H](O)[C@H]1Cl [sucralose, 4,1′,6′-trichloro-4,1′,6′-trideoxygalactosucrose] | 0.4 | about 1.1 | about 1.2 | – |
| CC(=O)OC[C@H]1O[C@H](O[C@]2(CCl)O[C@H](CCl)[C@@H](O)[C@@H]2O)[C@H](O)[C@@H](O)[C@H]1Cl [sucralose-6-acetate] | – | – | – | larger that the corresponding value for sucralose |
